Test results taken from US20130065818A1, “Arylamide Compounds And Compositions And Uses Thereof” (POLYMEDIX, priority 2006, published 2013).
Converted amounts (≈) assume the structure as drawn. Like-named read-outs stand apart in the source and are kept apart here.

System: S. aureus ATCC 27660
Assay: MIC, control bacteria (Example 8)
Type: cell-based
Procedure: • Mueller-Hinton Broth in tubes was inoculated with 25 ocular isolates of Staphylococcus aureus fluoroquinolone-susceptible, Staphylococcus aureus fluoroquinolone-resistant, Staphylococcus epidermidis (Coagulase-negative Staphylococcus) fluoroquinolone-susceptible, Staphylococcus epidermidis (Coagulase-negative Staphylococcus) fluoroquinolone-resistant, Pseudomonas aeruginosa and Serratia marcescens, plus two controls (Staphylococcus aureus and E. coli) and incubated at 37° C. overnight on a shaker set at 250 rpm.
Control Bacteria—The two control bacteria (Staphylococcus aureus and E. coli) were treated as above.
Control Bacteria Set #1—this set of control bacteria were treated as the Streptococcus pneumoniae, Streptococcus viridans and Moraxella species (including Moraxella catarrhalis) test isolates above; the control bacteria underwent the same conditions as the test Streptococcus pneumoniae, Streptococcus viridans and Moraxella species (including Moraxella catarrhalis) isolates. This set of control bacteria was to determine whether there was a difference in the MICs by performing the MIC determinations in 2% lysed horse red blood cells with the standard method performed in Mueller-Hinton broth.
Control Bacteria Set #2—the control bacteria were added to 5 ml of Mueller-Hinton Broth without the 2% lysed horse red blood cells to achieve the standard inoculum concentration. This set of control bacteria is the normal control to determine whether the compounds are at the target MICs.
Control Bacteria Set #1—this set of control bacteria were treated as the Haemophilus influenzae test isolates above; the control bacteria underwent the same conditions as the test Haemophilus influenzae isolates. This set of control bacteria is to determine whether there was a difference in the MICs by performing the MIC determinations in HTM broth with the standard method performed in Mueller-Hinton broth.
Control Bacteria Set #2—the control bacteria were added to 5 ml of Mueller-Hinton Broth to achieve the standard inoculum concentration. This set of control bacteria is the normal control to determine whether the compounds are at the target MICs.
Ninety μl of the bacterial suspensions was dispensed in each well from column 1 to column 12. Each bacterial isolate was placed in one row of a 96 well polypropylene plate containing the test agents. The plates were placed on shaker at 15 minutes at room temperature, and then incubated at 37° C. overnight. MICs were determined visually as the lowest concentration of drug that inhibits visible bacterial growth.

[1] = Control Bacteria S. aureus ATCC 27660

SMILES: N=C(N)NCCCCC(=O)Nc1cc(C(F)(F)F)cc(NC(=O)c2cc(C(=O)Nc3cc(C(F)(F)F)cc(NC(=O)CCCCNC(=N)N)c3O[C@@H]3CCNC3)ncn2)c1O[C@@H]1CCNC1 [Oligomer 4]
- Decrease of activity by addition of 2% lysed horse red blood cells to Mueller-Hinton broth [1]: approximately 4 fold
- Decrease of activity by use of HTM broth [1]: approximately 8 fold
- MIC (Control Bacteria Set #1, run with Haemophilus influenzae MIC test, read-out: MIC): 4 µg/mL (≈ 4.27 µM)
- MIC (S. aureus ATCC 27660): 0.098 µg/mL (≈ 0.105 µM)
- MIC (S. aureus ATCC 27660, Control for MIC Test SA-FQR, first batch): 1 µg/mL (≈ 1.07 µM)
- MIC (S. aureus ATCC 27660, Control for MIC Test SA-FQS, first batch): 2 µg/mL (≈ 2.13 µM)
- MIC (S. aureus ATCC 27660, new batches, Control Only 1): 0.25 µg/mL (≈ 0.267 µM)
- MIC (S. aureus ATCC 27660, new batches, Control Only 2): 0.25 µg/mL (≈ 0.267 µM)
- MIC (S. aureus ATCC 27660, new batches, Control Only 3): 0.25 µg/mL (≈ 0.267 µM)
- MIC (S. aureus ATCC 27660, new batches, Control Only 4): 0.5 µg/mL (≈ 0.534 µM)
- MIC (Staphylococcus aureus, ATCC27660, Control Bacteria Set #1, run with Moraxella MIC test, read-out: MIC): 1 µg/mL (≈ 1.07 µM)
- MIC (Staphylococcus aureus, ATCC27660, Control Only 1, read-out: MIC of control bacteria on day of MIC testing): 0.25 µg/mL
- MIC (Staphylococcus aureus, ATCC27660, Control Only 2, read-out: MIC of control bacteria on day of MIC testing): 0.25 µg/mL
- MIC (Staphylococcus aureus, ATCC27660, Control Only 3, read-out: MIC of control bacteria on day of MIC testing): 0.25 µg/mL
- MIC (Staphylococcus aureus, ATCC27660, Control Only 4, read-out: MIC of control bacteria on day of MIC testing): 0.5 µg/mL
- MIC (Staphylococcus aureus, ATCC27660, S. aureus ATCC 27660, Control Bacteria Set #1 (same conditions as test isolates), run with Streptococcus pneumoniae MIC test, read-out: MIC): 1 µg/mL (≈ 1.07 µM)
- MIC (Staphylococcus aureus, ATCC27660, S. aureus ATCC 27660, Control Bacteria Set #1 (same conditions as test isolates), run with Streptococcus viridans group MIC test, read-out: MIC): 2 µg/mL (≈ 2.13 µM)
- MIC (Staphylococcus aureus, ATCC27660, S. aureus ATCC 27660, Control Bacteria Set #2 (Mueller-Hinton Broth), run with Streptococcus pneumoniae MIC test, read-out: MIC): 0.25 µg/mL (≈ 0.267 µM)
- MIC (Staphylococcus aureus, ATCC27660, S. aureus ATCC 27660, Control Bacteria Set #2 (Mueller-Hinton Broth), run with Streptococcus viridans group MIC test, read-out: MIC): 1 µg/mL (≈ 1.07 µM)
- MIC (Staphylococcus aureus, ATCC27660, S. aureus ATCC 27660, control bacteria run with Pseudomonas aeruginosa MIC test, read-out: MIC): 0.5 µg/mL (≈ 0.534 µM)
- MIC (Staphylococcus aureus, ATCC27660, S. aureus ATCC 27660, control bacteria run with S. aureus fluoroquinolone-resistant MIC test, read-out: MIC): 1 µg/mL (≈ 1.07 µM)
- MIC (Staphylococcus aureus, ATCC27660, S. aureus ATCC 27660, control bacteria run with S. aureus fluoroquinolone-susceptible MIC test, read-out: MIC): 2 µg/mL (≈ 2.13 µM)
- MIC (Staphylococcus aureus, ATCC27660, S. aureus ATCC 27660, control bacteria run with S. epidermidis fluoroquinolone-resistant MIC test, read-out: MIC): 0.25 µg/mL (≈ 0.267 µM)
- MIC (Staphylococcus aureus, ATCC27660, S. aureus ATCC 27660, control bacteria run with S. epidermidis fluoroquinolone-susceptible MIC test, read-out: MIC): 0.25 µg/mL (≈ 0.267 µM)
- MIC (Staphylococcus aureus, ATCC27660, S. aureus ATCC 27660, control bacteria run with Serratia marcescens MIC test, read-out: MIC): 0.25 µg/mL (≈ 0.267 µM)
- MIC (Staphylococcus aureus, ATCC27660, S. aureus ATCC 27660, MIC previously obtained (target MIC), printed in parentheses, read-out: MIC for Control Bacteria within the parentheses): 0.098 µg/mL (≈ 0.105 µM)
- MIC (Staphylococcus aureus, ATCC27660, S. aureus ATCC27660, read-out: MIC): 0.098 µg/mL (≈ 0.105 µM)
- MIC (Staphylococcus aureus, ATCC27660, control for MIC test HI (Control Bacteria Set #2), read-out: MIC of control bacteria on day of MIC testing): 0.5 µg/mL
- MIC (Staphylococcus aureus, ATCC27660, control for MIC test MS (Control Bacteria Set #2), read-out: MIC of control bacteria on day of MIC testing): 0.5 µg/mL
- MIC (Staphylococcus aureus, ATCC27660, control for MIC test PA, read-out: MIC of control bacteria on day of MIC testing): 0.5 µg/mL
- MIC (Staphylococcus aureus, ATCC27660, control for MIC test SA-FQR, read-out: MIC of control bacteria on day of MIC testing): 1 µg/mL
- MIC (Staphylococcus aureus, ATCC27660, control for MIC test SA-FQS, read-out: MIC of control bacteria on day of MIC testing): 2 µg/mL
- MIC (Staphylococcus aureus, ATCC27660, control for MIC test SE-FQR, read-out: MIC of control bacteria on day of MIC testing): 0.25 µg/mL
- MIC (Staphylococcus aureus, ATCC27660, control for MIC test SE-FQS, read-out: MIC of control bacteria on day of MIC testing): 0.25 µg/mL
- MIC (Staphylococcus aureus, ATCC27660, control for MIC test SM, read-out: MIC of control bacteria on day of MIC testing): 0.25 µg/mL
- MIC (Staphylococcus aureus, ATCC27660, control for MIC test SP, read-out: MIC of control bacteria on day of MIC testing): 0.25 µg/mL
- MIC (Staphylococcus aureus, ATCC27660, control for MIC test SV, read-out: MIC of control bacteria on day of MIC testing): 1 µg/mL
- MIC (Staphylococcus aureus, ATCC27660, reference MIC printed in parentheses beside the day's control value, read-out: MIC for Control Bacteria (within the parentheses)): 0.098 µg/mL (≈ 0.105 µM)
